Experimental data published in EPA's ToxRefDB 2.

Columns and labels:
rabbit [1] = conditions: Prenatal developmental toxicity study, himalayan, Oral, Gavage/Intubation, dose end: 27 GD
rat [2] = conditions: Prenatal developmental toxicity study, sprague dawley, Oral, Gavage/Intubation, dose end: 15 GD
rat [3] = conditions: Combined chronic toxicity/carcinogenicity, sprague dawley, Oral, Feed, dose end: 106 week
rat [4] = conditions: Prenatal developmental toxicity study, sprague dawley, Oral, Gavage/Intubation, dose end: 15 GD; remark: listed apart in the source
rat [5] = conditions: Multigenerational reproductive toxicity study, wistar, Oral, Feed, dose end: 2 generation
rat [6] = conditions: Prenatal developmental toxicity study, sprague dawley albino, Oral, Gavage/Intubation, dose end: 19 GD
rat [7] = conditions: Multigenerational reproductive toxicity study, wistar, Oral, Gavage/Intubation, dose end: 1 generation
rat [8] = conditions: Peri- and post-natal toxicity study (Segment III), wistar, Oral, Gavage/Intubation, dose end: 21 PND
mouse [9] = conditions: Multigenerational reproductive toxicity study, cd1, Oral, Water, dose end: 1 generation
rabbit [10] = conditions: Prenatal developmental toxicity study, new zealand white, Oral, Gavage/Intubation, dose end: 19 GD
mouse [11] = conditions: Prenatal developmental toxicity study, cd1, Oral, Gavage/Intubation, dose end: 15 GD
[12] = group: developmental, developmental / developmental malformation / bone / [other] + developmental / developmental malformation / bone / fused + developmental / …
[13] = group: maternal, reproductive / reproductive performance / postimplantation loss / postimplantation loss + systemic / in life observation / body weight / …
[14] = group: developmental, developmental / developmental malformation / trunk / ecchymosis
[15] = group: developmental, developmental / developmental malformation / trunk / ecchymosis + developmental / developmental malformation / bone / incomplete …
[16] = group: maternal, systemic / in life observation / body weight / body weight gain + systemic / in life observation / food consumption / food consumption
[17] = group: maternal, systemic / in life observation / body weight / body weight gain + systemic / in life observation / food consumption / food consumption + …
[18] = group: cholinesterase, cholinesterase / cholinesterase / cholinesterase / erythrocyte cholinesterase (che) + cholinesterase / cholinesterase / cholinesterase / …
[19] = group: systemic, systemic / in life observation / body weight / body weight + systemic / in life observation / body weight / body weight gain + systemic / in…
[20] = group: developmental, developmental / developmental malformation / bone / absent + developmental / developmental malformation / bone / supernumerary
[21] = group: developmental, developmental / developmental malformation / bone / absent + developmental / developmental malformation / bone / supernumerary + systemic / …
[22] = group: maternal, systemic / in life observation / body weight / body weight gain
[23] = group: maternal, systemic / in life observation / body weight / body weight gain + systemic / in life observation / clinical signs / salivation + systemic / …
[24] = group: offspring, systemic / organ weight / liver / absolute + systemic / organ weight / liver / nos + systemic / organ weight / epididymis / absolute + …
[25] = group: offspring, systemic / organ weight / testes / nos
[26] = group: parental, systemic / organ weight / testes / absolute
[27] = group: parental, systemic / organ weight / testes / absolute + systemic / organ weight / liver / nos + systemic / organ weight / testes / nos + systemic / …
[28] = group: reproductive, reproductive / reproductive performance / fertility / fertility
[29] = group: developmental, developmental / developmental landmark / anogenital distance (agd) / anogenital distance (agd)
[30] = group: parental, systemic / in life observation / body weight / body weight gain + systemic / in life observation / food consumption / food consumption
[31] = group: reproductive, reproductive / offspring survival early / dead fetuses / dead fetuses
[32] = group: offspring, systemic / in life observation / body weight / offspring (pup) weight gain
[33] = group: offspring, systemic / in life observation / body weight / offspring (pup) weight
[34] = group: parental, systemic / organ weight / liver / absolute + systemic / organ weight / liver / relative to body weight + systemic / organ weight / pituitary…
[35] = group: reproductive, reproductive / reproductive performance / reproductive performance other / NOS + reproductive / reproductive performance / gestational …
[36] = group: developmental, developmental / developmental malformation / general / local edema + developmental / developmental malformation / great vessels / persistent…
[37] = group: maternal, reproductive / reproductive performance / preimplantation loss / preimplantation loss + reproductive / reproductive performance / …
[38] = group: developmental, developmental / developmental malformation / bone / exencephaly + developmental / developmental malformation / bone / fused + developmental…
[39] = group: maternal, systemic / organ weight / liver / relative to body weight

CCCCCCCCCCCCCC[N+](C)(C)CCC[Si](OC)(OC)OC.[Cl-]
LEL (rabbit [1]; [12]): 180 mg/kg/day
LOAEL (rabbit [1]; [12]): > 180 mg/kg/day
NEL (rabbit [1]; [12]): 90 mg/kg/day
NOAEL (rabbit [1]; [12]): ≥ 180 mg/kg/day
LEL (rabbit [1]; [13]): 180 mg/kg/day
LOAEL (rabbit [1]; [13]): > 180 mg/kg/day
NEL (rabbit [1]; [13]): 90 mg/kg/day
NOAEL (rabbit [1]; [13]): ≥ 180 mg/kg/day

CNC(=O)O/N=C/C(C)(C)SC [Aldicarb]
LEL (rat [2]; [14]): 0.25 mg/kg/day
LOAEL (rat [2]; [14]): 0.25 mg/kg/day
NEL (rat [2]; [15]): 0.125 mg/kg/day
NOAEL (rat [2]; [15]): 0.125 mg/kg/day
LEL (rat [2]; [16]): 0.25 mg/kg/day
LOAEL (rat [2]; [16]): 0.25 mg/kg/day
NEL (rat [2]; [17]): 0.125 mg/kg/day
NOAEL (rat [2]; [17]): 0.125 mg/kg/day
LEL (rat [3]; [18]): 0.47 mg/kg/day
LOAEL (rat [3]; [18]): 0.47 mg/kg/day
NEL (rat [3]; [18]): 0.047 mg/kg/day
NOAEL (rat [3]; [18]): 0.047 mg/kg/day
LEL (rat [3]; [19]): 1.44 mg/kg/day
LOAEL (rat [3]; [19]): > 1.44 mg/kg/day
NEL (rat [3]; [19]): 0.47 mg/kg/day
NOAEL (rat [3]; [19]): ≥ 1.44 mg/kg/day

C=C(C)C1CC=C(C)CC1 (stereo unspecified) [Limonene]
LEL (rat [4]; [20]): 500 mg/kg/day
LOAEL (rat [4]; [20]): 500 mg/kg/day
NEL (rat [4]; [21]): 250 mg/kg/day
NOAEL (rat [4]; [21]): 250 mg/kg/day
LEL (rat [4]; [22]): 500 mg/kg/day
LOAEL (rat [4]; [22]): 500 mg/kg/day
NEL (rat [4]; [23]): 250 mg/kg/day
NOAEL (rat [4]; [23]): 250 mg/kg/day

CC12CC1(C)C(=O)N(c1cc(Cl)cc(Cl)c1)C2=O (stereo unspecified) [Procymidone]
LOAEL (rat [5]; [24]): > 77.8 mg/kg/day
NOAEL (rat [5]; [24]): ≥ 77.8 mg/kg/day
LEL (rat [5]; [25]): 5.35 mg/kg/day
NEL (rat [5]; [25]): < 5.35 mg/kg/day
LEL (rat [5]; [26]): 22.7 mg/kg/day
LOAEL (rat [5]; [26]): 22.7 mg/kg/day
NEL (rat [5]; [27]): 4.52 mg/kg/day
NOAEL (rat [5]; [27]): 4.52 mg/kg/day
LEL (rat [5]; [28]): 73.2 mg/kg/day
LOAEL (rat [5]; [28]): 73.2 mg/kg/day
NEL (rat [5]; [28]): 24.1 mg/kg/day
NOAEL (rat [5]; [28]): 24.1 mg/kg/day
LEL (rat [6]; [29]): 12.5 mg/kg/day
LOAEL (rat [6]; [29]): 12.5 mg/kg/day
NEL (rat [6]; [29]): 3.5 mg/kg/day
NOAEL (rat [6]; [29]): 3.5 mg/kg/day
LOAEL (rat [6]; [16]): 125 mg/kg/day
LEL (rat [6]; [17]): 125 mg/kg/day
NEL (rat [6]; [17]): 12.5 mg/kg/day
NOAEL (rat [6]; [17]): 12.5 mg/kg/day

CCOCC(O)COc1ccc(NC(=O)CC[S+](C)C)cc1.Cc1ccc(S(=O)(=O)[O-])cc1 (stereo unspecified) [Suplatast tosylate]
LEL (rat [7]; [30]): 1800 mg/kg/day
LOAEL (rat [7]; [30]): > 1800 mg/kg/day
NEL (rat [7]; [30]): 600 mg/kg/day
NOAEL (rat [7]; [30]): ≥ 1800 mg/kg/day
LEL (rat [7]; [31]): 1800 mg/kg/day
LOAEL (rat [7]; [31]): > 1800 mg/kg/day
NEL (rat [7]; [31]): 600 mg/kg/day
NOAEL (rat [7]; [31]): ≥ 1800 mg/kg/day
LEL (rat [8]; [32]): 1800 mg/kg/day
LOAEL (rat [8]; [32]): > 1800 mg/kg/day
NEL (rat [8]; [32]): 600 mg/kg/day
NOAEL (rat [8]; [32]): ≥ 1800 mg/kg/day
LEL (rat [8]; [30]): 1800 mg/kg/day
LOAEL (rat [8]; [30]): > 1800 mg/kg/day
NEL (rat [8]; [30]): 600 mg/kg/day
NOAEL (rat [8]; [30]): ≥ 1800 mg/kg/day

COCCOCCOCCOC [Triethylene glycol dimethyl ether]
LEL (mouse [9]; [33]): 87.5 mg/kg/day
LOAEL (mouse [9]; [33]): > 175 mg/kg/day
NEL (mouse [9]; [33]): 43.8 mg/kg/day
NOAEL (mouse [9]; [33]): ≥ 175 mg/kg/day
LEL (mouse [9]; [34]): 175 mg/kg/day
LOAEL (mouse [9]; [34]): > 175 mg/kg/day
NEL (mouse [9]; [34]): 87.5 mg/kg/day
NOAEL (mouse [9]; [34]): ≥ 175 mg/kg/day
LEL (mouse [9]; group: reproductive, reproductive / reproductive performance / gestational length / gestational length): 87.5 mg/kg/day
LOAEL (mouse [9]; [35]): > 175 mg/kg/day
NEL (mouse [9]; [35]): 43.8 mg/kg/day
NOAEL (mouse [9]; [35]): ≥ 175 mg/kg/day
LOAEL (rabbit [10]; [36]): > 250 mg/kg/day
NEL (rabbit [10]; [36]): 75 mg/kg/day
NOAEL (rabbit [10]; [36]): ≥ 250 mg/kg/day
LEL (rabbit [10]; group: developmental, developmental / developmental malformation / spleen / small): 125 mg/kg/day
LOAEL (rabbit [10]; [37]): > 250 mg/kg/day
NEL (rabbit [10]; [37]): 125 mg/kg/day
NOAEL (rabbit [10]; [37]): ≥ 250 mg/kg/day
LEL (rabbit [10]; [22]): 175 mg/kg/day
LOAEL (mouse [11]; [38]): > 1000 mg/kg/day
NEL (mouse [11]; [38]): 250 mg/kg/day
NOAEL (mouse [11]; [38]): ≥ 1000 mg/kg/day
LEL (mouse [11]; group: developmental, systemic / in life observation / body weight / fetal weight): 500 mg/kg/day
LEL (mouse [11]; [39]): 500 mg/kg/day
LOAEL (mouse [11]; [39]): > 1000 mg/kg/day
NEL (mouse [11]; [39]): 250 mg/kg/day
NOAEL (mouse [11]; [39]): ≥ 1000 mg/kg/day
